Results taken from paper PMC11148045, “Structural basis for recognition of 26RFa by the pyroglutamylated RFamide peptide receptor” (Cell Discovery, 2024).
No end group written: not given here.

Columns and labels:
QRFPR = conditions: cited from earlier work
Text: The 26RFa/QRFPR system plays critical roles in energy homeostasis. Uncovering the atomic details of 26RFa recognition and regulation of QRFPR is crucial for unraveling the function of QRFPR and developing effective treatments against obesity, diabetes, and eating disorders. […] The unique organization mode is crucial for the recognition of 26RFa by QRFPR. The C-terminal heptapeptide of 26R ...

NPY1R and NPY4R = conditions: cited from earlier work
Text: Specifically, Arg25 and Arg35 in 26RFa and NPY/PP are exposed to a conserved polar environment that includes residues E^45.52, T^5.39, and D/E^6.59 in QRFPR and NPYRs. However, subtle differences exist in the special binding interactions between these arginines and conserved polar residues (Fig. 4d–f). Side chains of Arg35 in NPY/PP form a conserved salt bridge with D^6.59 and a hydrogen bond with T^5.39 (NPY1R and NPY4R) or a salt bridge with E^45.52 (NPY2R) (Fig. 4e, f). In 26RFa, Arg25 retains its salt bridge with E203^45.52 but fails to build a salt bridge with E297^6.59 (Fig. 3b). It is p ... || Phe26 in 26RFa and Tyr36 in NPY/PP show distinct binding characteristics for QRFRP and NPYRs, respectively. […] (Fig. 4e). However, in NPY2R, this hydrogen bond is absent due to the substitution of glutamine with leucine at position 5.46, which lacks a hydrogen bond donor (Fig. 4c, f). Similarly, QRFPR also has a leucine at position 5.46, which cannot form a corresponding hydrogen bond with Phe26 in 26RFa. Furthermore, in contrast to the notable impact of Q^5.46 on the NP ...

QRFPR mutants [1] = target: T1, QRFPR mutants (Homo sapiens, UniProt Q96P65, C201A); experiment: 26RFa-induced calcium mobilization, receptor mutants; format: cell-based; conditions: HEK293, QRFPR C201^ECL2A; HEK293, Fluo-4; mean ± S.E.M., n ≥ 3
T1 construct: expressed in transfected cells; host or cells: HEK293, transient transfection by electroporation
T1 sequence (Q96P65 whole entry C201A): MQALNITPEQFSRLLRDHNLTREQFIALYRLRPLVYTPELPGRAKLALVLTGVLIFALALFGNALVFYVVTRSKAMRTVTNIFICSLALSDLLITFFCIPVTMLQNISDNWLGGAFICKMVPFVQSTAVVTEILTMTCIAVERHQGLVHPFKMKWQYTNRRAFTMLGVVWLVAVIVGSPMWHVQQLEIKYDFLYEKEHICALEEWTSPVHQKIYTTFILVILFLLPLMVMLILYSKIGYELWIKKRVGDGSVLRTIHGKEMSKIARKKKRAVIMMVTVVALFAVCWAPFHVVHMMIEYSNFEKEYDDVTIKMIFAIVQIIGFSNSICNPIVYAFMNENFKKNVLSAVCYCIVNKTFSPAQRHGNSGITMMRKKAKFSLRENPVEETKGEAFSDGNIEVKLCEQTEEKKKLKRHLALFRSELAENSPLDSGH
Procedure: (§1) The gene encoding the WT QRFPR, PrPRR, KISS1R, NPFF1R, or NPFF2R was subcloned into the pcDNA3.0 vector with the addition of an N-terminal HA tag. All of the mutations used for functional studies were generated by QuickChange PCR and verified by DNA sequencing.
(§2) HEK293 cells were obtained from ATCC (Manassas, VA, USA) and cultured in DMEM supplemented with 10% (v/v) FBS, 100 mg/L penicillin, and 100 mg/L streptomycin in 5% CO2 at 37 °C. For transient transfection, ~2.5 × 10^6 cells were mixed with 2 µg plasmids in 200 µL transfection buffer, and electroporation was carried out with a Scientz-2C electroporation apparatus (Scientz Biotech, Ningbo, China). The experiments were carried out 24 h after transfection.
(§3) For QRFPR, PrRPR, and KISS1R, HEK293 cells transfected with WT receptor or its mutants were seeded at a density of 4 × 10^4 per well into 96-well culture plates and incubated for 24 h at 37 °C in 5% CO2. For NPFF1R and NPFF2R, plasmids were transfected into HEK293 cells stably expressing Gα16. On the next day, cells were incubated with 2 μmol/L Fluo-4 AM in HBSS supplemented with 5.6 mmol/L D-glucose and 250 μmol/L sulfinpyrazone at 37 °C for 45 min. After washing, cells were added with 50 μL HBSS and incubated at room temperature for 10 min, then 25 μL agonist buffer was dispensed into the well using a FlexStation III microplate reader (Molecular Devices), and intracellular calcium change was recorded at an excitation wavelength of 485 nm and an emission wavelength of 525 nm. EC50 and Emax values for each curve were calculated by Prism 8.0 software (GraphPad Software).

QRFPR mutants [2] = target: T2, QRFPR mutants (Homo sapiens, UniProt Q96P65, E203A); experiment: as above; format: cell-based
T2 construct: expressed in transfected cells; host or cells: HEK293, transient transfection by electroporation
T2 sequence (Q96P65 whole entry E203A): as the sequence (Q96P65 whole entry C201A) above, with A201C, E203A counted along it
Procedure: as §1, §2, §3

QRFPR mutants [3] = target: T3, QRFPR mutants (Homo sapiens, UniProt Q96P65, V101A); experiment: as above; format: cell-based; conditions: HEK293, QRFPR V101^2.59A; HEK293, Fluo-4; mean ± S.E.M., n ≥ 3
T3 construct: expressed in transfected cells; host or cells: HEK293, transient transfection by electroporation
T3 sequence (Q96P65 whole entry V101A): as the sequence (Q96P65 whole entry C201A) above, with V101A, A201C counted along it
Procedure: as §1, §2, §3

QRFPR mutants [4] = target: T4, QRFPR mutants (Homo sapiens, UniProt Q96P65, L222A); experiment: as above; format: cell-based
T4 construct: expressed in transfected cells; host or cells: HEK293, transient transfection by electroporation
T4 sequence (Q96P65 whole entry L222A): as the sequence (Q96P65 whole entry C201A) above, with A201C, L222A counted along it
Procedure: as §1, §2, §3

QRFPR mutants [5] = target: T5, QRFPR mutants (Homo sapiens, UniProt Q96P65, F192A); experiment: as above; format: cell-based; conditions: HEK293, QRFPR F192^ECL2A; HEK293, Fluo-4; mean ± S.E.M., n ≥ 3
T5 construct: expressed in transfected cells; host or cells: HEK293, transient transfection by electroporation
T5 sequence (Q96P65 whole entry F192A): as the sequence (Q96P65 whole entry C201A) above, with F192A, A201C counted along it
Procedure: as §1, §2, §3

QRFPR mutants [6] = target: T6, QRFPR mutants (Homo sapiens, UniProt Q96P65, I218A); experiment: as above; format: cell-based; conditions: HEK293, QRFPR I218^5.42A; HEK293, Fluo-4; mean ± S.E.M., n ≥ 3
T6 construct: expressed in transfected cells; host or cells: HEK293, transient transfection by electroporation
T6 sequence (Q96P65 whole entry I218A): as the sequence (Q96P65 whole entry C201A) above, with A201C, I218A counted along it
Procedure: as §1, §2, §3

QRFPR mutants [7] = target: T7, QRFPR mutants (Homo sapiens, UniProt Q96P65, L104A); experiment: as above; format: cell-based; conditions: HEK293, QRFPR L104^2.62A; HEK293, Fluo-4; mean ± S.E.M., n ≥ 3
T7 construct: expressed in transfected cells; host or cells: HEK293, transient transfection by electroporation
T7 sequence (Q96P65 whole entry L104A): as the sequence (Q96P65 whole entry C201A) above, with L104A, A201C counted along it
Procedure: as §1, §2, §3

QRFPR mutants [8] = target: T8, QRFPR mutants (Homo sapiens, UniProt Q96P65, L202A); experiment: as above; format: cell-based; conditions: HEK293, QRFPR L202^45.51A; HEK293, Fluo-4; mean ± S.E.M., n ≥ 3
T8 construct: expressed in transfected cells; host or cells: HEK293, transient transfection by electroporation
T8 sequence (Q96P65 whole entry L202A): as the sequence (Q96P65 whole entry C201A) above, with A201C, L202A counted along it
Procedure: as §1, §2, §3

QRFPR mutants [9] = target: T9, QRFPR mutants (Homo sapiens, UniProt Q96P65, Q125A); experiment: as above; format: cell-based; conditions: HEK293, QRFPR Q125^3.32A; HEK293, Fluo-4; mean ± S.E.M., n ≥ 3
T9 construct: expressed in transfected cells; host or cells: HEK293, transient transfection by electroporation
T9 sequence (Q96P65 whole entry Q125A): as the sequence (Q96P65 whole entry C201A) above, with Q125A, A201C counted along it
Procedure: as §1, §2, §3

QRFPR mutants [10] = target: T10, QRFPR mutants (Homo sapiens, UniProt Q96P65, V129A); experiment: as above; format: cell-based; conditions: HEK293, QRFPR V129^3.36A; HEK293, Fluo-4; mean ± S.E.M., n ≥ 3
T10 construct: expressed in transfected cells; host or cells: HEK293, transient transfection by electroporation
T10 sequence (Q96P65 whole entry V129A): as the sequence (Q96P65 whole entry C201A) above, with V129A, A201C counted along it
Procedure: as §1, §2, §3

QRFPR mutants [11] = target: T11, QRFPR mutants (Homo sapiens, UniProt Q96P65, C200A); experiment: as above; format: cell-based; conditions: HEK293, QRFPR C200^ECL2A; HEK293, Fluo-4; mean ± S.E.M., n ≥ 3
T11 construct: expressed in transfected cells; host or cells: HEK293, transient transfection by electroporation
T11 sequence (Q96P65 whole entry C200A): as the sequence (Q96P65 whole entry C201A) above, with C200A, A201C counted along it
Procedure: as §1, §2, §3

QRFPR mutants [12] = target: T12, QRFPR mutants (Homo sapiens, UniProt Q96P65, Y214A); experiment: as above; format: cell-based; conditions: HEK293, QRFPR Y214^5.38A; HEK293, Fluo-4; mean ± S.E.M., n ≥ 3
T12 construct: expressed in transfected cells; host or cells: HEK293, transient transfection by electroporation
T12 sequence (Q96P65 whole entry Y214A): as the sequence (Q96P65 whole entry C201A) above, with A201C, Y214A counted along it
Procedure: as §1, §2, §3

ASGPLGTLAEELSSYSRRKGGFSFRF-NH2 [26RFa]
selectivity for QRFPR (QRFPR): high selectivity of 26RFa for QRFPR | role of amide-surrounding residues (C^2.57, T^2.61, Q^3.32, Q/H^7.39) in activity (NPY1R and NPY4R): critical for 26RFa and NPY/PP activities | Emax (QRFPR mutants [1]): 1.84 ± 1.5% | effect of E^45.52 to alanine (QRFPR mutants [2]; 26RFa, QRFPR): remarkable decline of activity or potency | Emax (QRFPR mutants [2]; HEK293, QRFPR E203^45.52A, HEK293, Fluo-4, mean ± S.E.M., n ≥ 3): 96.9 ± 0.64% | Emax (QRFPR mutants [3]): 102 ± 1.7% | effect of L^5.46 on peptide activity (QRFPR mutants [4]; 26RFa, QRFPR L^5.46 (Supplementary Fig. S3)): negligible effects | Emax (QRFPR mutants [4]; HEK293, QRFPR L222^5.46A, HEK293, Fluo-4, mean ± S.E.M., n ≥ 3): 99 ± 1.3% | Emax (QRFPR mutants [5]): 87.4 ± 0.93% | Emax (QRFPR mutants [6]): 77.8 ± 0.31% | Emax (QRFPR mutants [7]): 109 ± 0.69% | Emax (QRFPR mutants [8]): 101 ± 2.3% | Emax (QRFPR mutants [9]): 14.1 ± 1.8% | Emax (QRFPR mutants [10]): 42.7 ± 0.71% | Emax (QRFPR mutants [11]): 88.5 ± 1.2% | Emax (QRFPR mutants [12]): 1.42 ± 0.7%
